Laboratory results: the supplement of paper PMC11451515

Key:
Experiment in all cases: AUC of viability dose-response curve (% viability x log10 dose units); higher = less sensitive
Settings in all cases: 48 h
SEM cells = system: SEM cells
Method in brief: (§1)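 Leukemia cells adapted to each medium (500 or 1000 cells/well, 1536-well plates) were exposed to library compounds in DMSO for 48 h at 37°C at 11 threefold doses, 47 μM to 0.79 nM. Luminescence by CellTiter-Glo One was normalised per plate to DMSO and cell-free wells, then fitted with a four-parameter log-logistic curve on log10 dose. Curves above full viability were scaled and quality-control failures removed before area under the curve was integrated by trapezoidal rule.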

NOMO1 = system: NOMO1
Method in brief: as §1

P12-Ichikawa = system: P12-Ichikawa
Method in brief: as §1

[1] = RPMI 5 mM glucose + 10% dialyzed FBS

Compound	AUC of viability dose-response curve (SEM cells; HPLM + 10% dialyzed FBS)	AUC of viability dose-response curve (SEM cells; RPMI 5 mM glucose + 10% FBS)	AUC of viability dose-response curve (SEM cells; [1])	AUC of viability dose-response curve (NOMO1; HPLM + 10% dialyzed FBS)	AUC of viability dose-response curve (NOMO1; RPMI 5 mM glucose + 10% FBS)	AUC of viability dose-response curve (NOMO1; [1])	AUC of viability dose-response curve (P12-Ichikawa; HPLM + 10% dialyzed FBS)	AUC of viability dose-response curve (P12-Ichikawa; RPMI 5 mM glucose + 10% FBS)	AUC of viability dose-response curve (P12-Ichikawa; [1])
NC\1=N\C(=O)N(\C=C1)[C@@H]2O[C@H](CO)[C@@H](O)[C@H]2O	452	443	438	417	463	466	467	471	469
Cc1c(C(=O)NN2CCCCC2)nn(-c2ccc(Cl)cc2Cl)c1-c1ccc(Cl)cc1	473	455	469	325	303	337	–	–	–
S=C1N\C=N/C2=C1[NH]C=N2	445	409	360	425	446	360	404	377	343
COc1ccc(-n2nc(C(N)=O)c3c2C(=O)N(c2ccc(N4CCCCC4=O)cc2)CC3)cc1	464	432	442	313	270	300	371	370	381
N#Cc1c(NC(=O)c2cccc3ccccc23)sc2c1CCCC2	318	304	310	345	339	346	325	325	346
